Assay results from patent US8895579B2, “Heterotricyclic AMPA receptor antagonists for treatment of epilepsy, pain, and other neurological disorders and diseases” (Northwestern University, priority 2010, dated 2014).
“And” between values parts separate entries of the source, which are not always exact repeats. Equal values may be shown once. “Also recorded” adds a separate entry of the source. Read-outs that look alike come from different tables or passages of the source.

How the values were obtained:
[1] = target: T1, recombinant homomeric GluA4 AMPA receptor (Rattus norvegicus, UniProt P19493); assay: Whole-cell patch clamp of recombinant GluA4 receptors in HEK293-T/17 cells; format: cell-based; settings: for inhibition at 30 µM: HEK293T/17, 30 μM
T1 construct: expressed in transfected cells; host or cells: HEK293-T/17 (CRL-11268)
T1 sequence (P19493 21-902 isoform P19493-2 limits assumed): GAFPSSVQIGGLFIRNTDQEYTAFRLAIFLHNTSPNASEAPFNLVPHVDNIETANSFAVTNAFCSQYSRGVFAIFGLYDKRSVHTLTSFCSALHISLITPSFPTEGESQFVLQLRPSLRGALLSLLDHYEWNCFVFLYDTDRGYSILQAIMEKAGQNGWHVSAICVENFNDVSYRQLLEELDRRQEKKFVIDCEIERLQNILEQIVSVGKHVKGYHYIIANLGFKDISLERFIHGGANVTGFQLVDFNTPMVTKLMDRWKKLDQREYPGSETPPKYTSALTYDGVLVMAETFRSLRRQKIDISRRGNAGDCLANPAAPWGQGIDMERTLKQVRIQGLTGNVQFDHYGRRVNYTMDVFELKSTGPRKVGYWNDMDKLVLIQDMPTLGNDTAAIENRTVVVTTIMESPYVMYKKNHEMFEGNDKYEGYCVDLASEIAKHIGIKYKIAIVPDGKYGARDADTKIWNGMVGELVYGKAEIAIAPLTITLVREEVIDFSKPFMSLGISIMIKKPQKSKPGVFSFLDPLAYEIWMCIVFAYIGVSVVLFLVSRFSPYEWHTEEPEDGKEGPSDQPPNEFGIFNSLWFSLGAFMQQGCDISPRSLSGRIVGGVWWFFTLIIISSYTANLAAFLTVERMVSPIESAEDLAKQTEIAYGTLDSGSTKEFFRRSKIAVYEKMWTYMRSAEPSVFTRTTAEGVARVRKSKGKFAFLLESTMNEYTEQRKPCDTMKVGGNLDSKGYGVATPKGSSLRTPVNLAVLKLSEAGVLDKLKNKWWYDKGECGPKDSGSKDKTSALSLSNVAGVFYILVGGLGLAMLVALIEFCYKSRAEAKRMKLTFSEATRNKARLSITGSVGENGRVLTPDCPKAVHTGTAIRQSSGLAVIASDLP
Method: (§1) Cell Culture and Transfection. Human embryonic kidney cells expressing T-antigen, clone 17 (HEK293-T/17) (CRL-11268) were cultured at 37° C. with 5% CO2 in DMEM, including 100 μg/mL penicillin, 100 μg/mL streptomycin, and 10% heat-inactivated fetal bovine serum. Cells were split twice per week. For transfection, HEK293-T/17 cells were plated at 3×10^4 cells/cm^2 for pharmacology experiments and 5×10^3 cells/cm^2 for physiology experiments in fresh medium 24 h prior to transfection. Cells were transfected with AMPA or KA receptor plasmid cDNAs using Mirus Trans-IT transfection reagent (Minus Bio Corporation, Madison, Wis.) at a ratio of 1 μg cDNA: 3 μL Trans-1T reagent and maintained in transfection medium overnight followed by a media change the next day. Transfected cells were maintained in this medium until the experiment was conducted (48-72 h total post transfection).
Electrophysiology. For analysis of recombinant receptors, HEK293-T/17 cells were co-transfected with 0.2 μg of iGluR cDNA and 0.05 μg of eGFP. For heterologous GluA1/GluA2 receptors, the GluA1:GluA2 cDNA ratio was 1:6. Two to three days post-transfection, eGFP-expressing cells were lifted from the cover slip and voltage clamped in whole cell mode. The internal solution contained (in mM) 30 CsF, 110 CsCl, 10 HEPES, 4 NaCl, 5 EGTA and 0.5 CaCl2 (pH 7.3), while the extracellular solution contained (in mM) 140 NaCl, 10 glucose, 10 Cs-HEPES, 3 KCl, 2 CaCl2 and 1 MgCl2 (pH 7.3). Borosilicate patch electrodes were pulled and fire polished to 2-3 MO resistance. Lifted cells were maintained in a laminar stream of extracellular solution from a triple-barreled flow pipe, which was rapidly translated using a piezoceramic bimorph for fast application of glutamate or kainate alone or in combination with various antagonists (the 10-90% rise time of glutamate-evoked currents was ˜1 ms). IKM compounds were applied for three minutes with analysis performed on the final one minute of drug application.
Statistical analysis. At least three separate experiments were performed for each assay. For data involving three or more groups, a one-way analysis of variance (ANOVA) was performed with a Tukey-Kramer post hoc test for comparison amongst the groups. For data involving two groups, an unpaired student's t-test was performed; if the standard deviations between the two groups were statistically significant, a Welsh correction was added. If the data involving three or more groups or data involving two groups where multiple treatments were performed on the same sample, a repeated measures ANOVA and paired t-test were used, respectively, for analysis of significance. Dose-inhibition response curves were fitted, with the maximum value constrained to 100 and the minimum value constrained to values greater than or equal to zero, using the following equation in order to calculate the IC50 values: Response=minimum+(maximum−minimum)/(1+(IC50^hill slope/dose^hillslope)) All calculations for statistical analysis were carried out with Graphpad Prism4 software (La Jolla, Calif.). Data are presented as mean±S.E.M. with statistical significance set at p<0.05.

[2] = target: T2, homomeric GluA3 AMPA receptor (Rattus norvegicus, UniProt P19492); assay: Whole-cell patch clamp of recombinant GluA3 receptors in HEK293-T/17 cells; format: cell-based; settings: 30 μM; 10 mM glutamate
T2 construct: expressed in transfected cells; host or cells: HEK293-T/17 (CRL-11268)
T2 sequence (P19492 23-888 isoform P19492-2 limits assumed): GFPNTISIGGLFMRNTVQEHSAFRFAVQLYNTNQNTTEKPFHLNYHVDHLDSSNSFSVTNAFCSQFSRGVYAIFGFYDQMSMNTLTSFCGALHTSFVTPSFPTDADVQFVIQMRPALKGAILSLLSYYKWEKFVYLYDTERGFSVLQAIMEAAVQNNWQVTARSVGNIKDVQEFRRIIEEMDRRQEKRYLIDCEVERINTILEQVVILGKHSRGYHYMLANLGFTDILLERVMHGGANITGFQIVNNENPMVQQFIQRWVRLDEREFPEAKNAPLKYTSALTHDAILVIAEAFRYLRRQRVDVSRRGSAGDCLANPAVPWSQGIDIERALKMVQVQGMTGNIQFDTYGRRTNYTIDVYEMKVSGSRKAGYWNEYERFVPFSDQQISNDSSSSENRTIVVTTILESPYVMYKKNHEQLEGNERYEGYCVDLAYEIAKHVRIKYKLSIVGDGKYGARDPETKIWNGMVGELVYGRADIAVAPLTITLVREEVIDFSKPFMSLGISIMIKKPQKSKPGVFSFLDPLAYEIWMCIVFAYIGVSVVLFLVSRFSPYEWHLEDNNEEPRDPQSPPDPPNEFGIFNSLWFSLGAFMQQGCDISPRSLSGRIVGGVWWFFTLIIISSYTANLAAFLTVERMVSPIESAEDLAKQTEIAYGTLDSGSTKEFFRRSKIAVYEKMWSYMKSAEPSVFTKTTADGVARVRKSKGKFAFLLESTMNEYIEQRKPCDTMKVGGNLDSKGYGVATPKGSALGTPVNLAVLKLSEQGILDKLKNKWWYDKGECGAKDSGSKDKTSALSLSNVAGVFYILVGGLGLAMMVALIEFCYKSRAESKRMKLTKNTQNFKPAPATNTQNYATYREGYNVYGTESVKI
Method: as §1
Electrophysiology. For analysis of recombinant receptors, HEK293-T/17 cells were co-transfected with 0.2 μg of iGluR cDNA and 0.05 μg of eGFP. For heterologous GluA1/GluA2 receptors, the GluA1:GluA2 cDNA ratio was 1:6. Two to three days post-transfection, eGFP-expressing cells were lifted from the cover slip and voltage clamped in whole cell mode. […]

[3] = target: T3, GluA1 (Rattus norvegicus, UniProt P19490); assay: [3H]-AMPA radioligand binding, membranes of HEK293-T/17 cells expressing GluA1; settings: 100 μM; 20 nM [3H]-AMPA; 1 h at 4° C.
T3 construct: expressed in transfected cells; host or cells: HEK293-T/17 (CRL-11268)
T3 sequence (P19490 19-907 isoform P19490-2 limits assumed): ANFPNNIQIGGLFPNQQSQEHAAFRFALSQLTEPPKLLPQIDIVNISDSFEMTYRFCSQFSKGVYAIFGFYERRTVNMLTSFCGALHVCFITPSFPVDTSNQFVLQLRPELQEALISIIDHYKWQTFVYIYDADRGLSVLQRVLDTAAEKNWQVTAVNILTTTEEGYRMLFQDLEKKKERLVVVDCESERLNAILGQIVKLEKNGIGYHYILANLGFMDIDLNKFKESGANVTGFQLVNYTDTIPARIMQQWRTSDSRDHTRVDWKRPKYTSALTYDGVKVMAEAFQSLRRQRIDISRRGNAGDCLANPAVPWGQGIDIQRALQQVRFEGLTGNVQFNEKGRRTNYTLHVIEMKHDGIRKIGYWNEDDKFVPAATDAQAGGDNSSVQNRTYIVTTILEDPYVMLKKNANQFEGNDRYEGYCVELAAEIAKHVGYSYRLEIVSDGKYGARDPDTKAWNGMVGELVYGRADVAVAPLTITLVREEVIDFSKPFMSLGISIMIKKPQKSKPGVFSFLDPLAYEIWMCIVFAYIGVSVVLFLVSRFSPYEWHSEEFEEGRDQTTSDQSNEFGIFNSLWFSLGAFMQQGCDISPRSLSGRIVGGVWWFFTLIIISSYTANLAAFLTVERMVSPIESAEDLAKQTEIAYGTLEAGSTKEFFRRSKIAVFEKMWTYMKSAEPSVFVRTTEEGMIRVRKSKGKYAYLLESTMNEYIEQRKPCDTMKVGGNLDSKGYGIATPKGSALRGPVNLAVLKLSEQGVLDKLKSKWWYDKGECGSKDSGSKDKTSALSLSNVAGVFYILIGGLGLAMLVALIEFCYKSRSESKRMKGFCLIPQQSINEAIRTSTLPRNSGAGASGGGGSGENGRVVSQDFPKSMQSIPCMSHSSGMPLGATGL
Method: (§2) Radioligand binding. HEK293-T/17 cells were transfected with 5 μg of iGluR cDNA in 100 mm^2 culture dishes. Two days post transfection, the plates were washed twice with ice-cold Dulbecco's phosphate-buffered saline (DPBS) and then incubated with 50 mM Tris (pH 7.4) and 1 mM EDTA for three minutes on ice. Cells were collected and centrifuged for five minutes at 800 g at room temperature. The cell pellet was homogenized in 50 mM Tris (pH 7.4) containing 320 mM sucrose (homogenization buffer, HB) on ice using a glass dounce homogenizer and centrifuged at 4° C. for 10 minutes at 800 g. The supernatant, containing the membrane fragments, was saved and the remaining pellet containing nuclei and unbroken cells was resuspended in HB. This homogenization process was repeated two more times and after collection of the final resulting supernatant, the remaining pellet was discarded. The collected supernatants were centrifuged at 4° C. for 20 minutes at 20000 g and the resulting supernatant was discarded leaving a membrane-containing pellet. […] Non-specific binding was determined as the amount of radioligand bound in the presence of a saturating concentration of glutamate (1 mM). Total binding was determined as the amount of radioligand bound in the absence of any competing ligands minus the non-specific binding. […]

[4] = target: T4, GluK1-2b (Rattus norvegicus, UniProt P22756); assay: [3H]-KA radioligand binding, membranes of HEK293-T/17 cells expressing GluK1-2b; settings: 10 nM [3H]-KA, 1 h at 4° C., read-out: [3H]KA bound as percent of total (specific) binding in absence of competing ligand
T4 construct: myc; expressed in transfected cells; host or cells: HEK293-T/17 (CRL-11268)
T4 sequence (P22756 31-905 isoform P22756-2 limits assumed): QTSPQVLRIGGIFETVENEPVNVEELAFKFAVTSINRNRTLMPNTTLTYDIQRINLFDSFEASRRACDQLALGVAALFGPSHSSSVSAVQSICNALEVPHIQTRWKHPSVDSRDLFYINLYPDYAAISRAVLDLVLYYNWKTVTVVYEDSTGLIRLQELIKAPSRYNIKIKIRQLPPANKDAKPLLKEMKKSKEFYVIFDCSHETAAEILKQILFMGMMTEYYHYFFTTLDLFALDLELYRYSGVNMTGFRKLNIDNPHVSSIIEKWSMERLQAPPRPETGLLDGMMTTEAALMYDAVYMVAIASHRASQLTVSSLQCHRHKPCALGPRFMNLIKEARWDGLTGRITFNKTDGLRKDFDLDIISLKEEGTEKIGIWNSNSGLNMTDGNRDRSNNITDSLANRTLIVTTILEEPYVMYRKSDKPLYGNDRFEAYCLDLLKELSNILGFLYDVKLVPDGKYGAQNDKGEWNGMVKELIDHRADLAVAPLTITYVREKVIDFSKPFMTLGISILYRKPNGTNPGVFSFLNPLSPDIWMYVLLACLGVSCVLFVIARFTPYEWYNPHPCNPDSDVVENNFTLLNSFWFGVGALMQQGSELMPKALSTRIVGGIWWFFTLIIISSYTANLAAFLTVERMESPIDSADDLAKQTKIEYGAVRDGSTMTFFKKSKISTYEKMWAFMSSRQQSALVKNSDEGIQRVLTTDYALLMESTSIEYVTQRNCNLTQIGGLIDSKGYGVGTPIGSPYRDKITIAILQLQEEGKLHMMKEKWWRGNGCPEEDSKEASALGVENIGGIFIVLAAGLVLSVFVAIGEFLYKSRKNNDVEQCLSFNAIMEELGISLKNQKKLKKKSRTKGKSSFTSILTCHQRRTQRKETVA
Method: as §2

[5] = test system: mice; settings: Ikoma et al., 2008; Oikawa et al., 2009 and unpublished observations; cited from earlier work

SMILES: O=C(O)C[C@@]12O[C@H]3C=CCN[C@H]3C1CN[C@H]2C(=O)O (stereo partly shown) [IKM-159]
- inhibition at 30 µM ([1]; 50 μM KA, read-out: percent inhibition of kainate-evoked steady state GluA4 currents): 37 ± 4%
- inhibition at 30 µM ([1]; 100 μM glutamate, 100 μM cyclothiazide, read-out: percent inhibition of steady-state GluA4 currents): 30 ± 5%
- inhibition at 30 µM ([1]; 500 μM KA, read-out: percent inhibition of kainate-evoked steady state GluA4 currents): 21 ± 2%
- inhibition at 30 µM ([1]; 500 μM glutamate, read-out: percent inhibition of GluA4 non-equilibrium peak currents): 44 ± 8%
- inhibition at 30 µM ([1]; 10 mM glutamate, 100 μM cyclothiazide, read-out: percent inhibition of steady-state GluA4 currents): 7 ± 2%
- inhibition at 30 µM ([1]; 10 mM glutamate, peak current, read-out: reduction from control GluA4 peak glutamate current amplitude (percent inhibition)): 40 ± 4%
- remaining activity at 30 µM ([1]; HEK293T/17, 30 μM, 10 mM glutamate 100 ms, pre-applied at least one minute, read-out: GluA4 peak current as percent of control amplitude): 60 ± 4%
- IC50 ([1]; currents evoked by 10 mM glutamate): 60 ± 8 µM
- GluA3 peak amplitude as percent of basal peak amplitude [2]: 83±2%
- reduction in GluA3 peak current amplitude [2]: 17±2%
- [3H]AMPA bound as percent of total (specific) binding in absence of competing ligand [3]: 135±23% and 134±23%
- activity at 100 µM [4]: 105 ± 5%
- behavioral phenotype in mice [5]: hypoactive phenotypes similar to cataleptic states; also recorded: marked hypoactivity and immobility
